Our source for the MIC and survival values is ChEMBL document CHEMBL3792311, “In vitro and in vivo activity of ML302F: a thioenolate inhibitor of VIM-subfamily metallo -lactamases” (Medchemcomm, 2016).

Values after ≈ are worked out from the molar mass of the structure shown.

Holding throughout (type): functional
In test [1] the test system is Klebsiella pneumoniae. Put plainly: Antibacterial activity against VIM1 carbapenemase producing multidrug-resistant Klebsiella pneumoniae GR54 clinical isolate by broth microtiter dilution method.
Test [2] deals with Klebsiella pneumoniae. Briefly: Antibacterial activity against VIM1 carbapenemase producing multidrug-resistant Klebsiella pneumoniae 177 clinical isolate by broth microtiter dilution method.
For test [3], the system named is Providencia stuartii. Put plainly: Antibacterial activity against VIM1 carbapenemase producing multidrug-resistant Providencia stuartii 67 clinical isolate by broth microtiter dilution method.
Test [4] concerns Providencia stuartii. Briefly: Antibacterial activity against VIM1 carbapenemase producing multidrug-resistant Providencia stuartii 70 clinical isolate by broth microtiter dilution method.
In test [5] the test system is Pseudomonas aeruginosa. Briefly: Antibacterial activity against VIM2 carbapenemase producing multidrug-resistant Pseudomonas aeruginosa 47 clinical isolate by broth microtiter dilution method.
Test [6] concerns Pseudomonas aeruginosa. Put plainly: Antibacterial activity against VIM2 carbapenemase producing multidrug-resistant Pseudomonas aeruginosa 50 clinical isolate by broth microtiter dilution method.
For test [7], the system named is Pseudomonas aeruginosa. Put plainly: Antibacterial activity against VIM2 carbapenemase producing multidrug-resistant Pseudomonas aeruginosa GR57 clinical isolate by broth microtiter dilution method.
For test [8], the system named is Pseudomonas aeruginosa. Briefly: Antibacterial activity against VIM2 carbapenemase producing multidrug-resistant Pseudomonas aeruginosa GR58 clinical isolate by broth microtiter dilution method.
Test [9] relates to Pseudomonas aeruginosa. Put plainly: Antibacterial activity against VIM2 carbapenemase producing multidrug-resistant Pseudomonas aeruginosa GR64 clinical isolate by broth microtiter dilution method.
Test [10] has as its system Pseudomonas aeruginosa. Briefly: Antibacterial activity against VIM2 carbapenemase producing multidrug-resistant Pseudomonas aeruginosa 8 clinical isolate by broth microtiter dilution method.
Test [11] deals with Pseudomonas aeruginosa. Briefly: Antibacterial activity against VIM2 carbapenemase producing multidrug-resistant Pseudomonas aeruginosa 9 clinical isolate by broth microtiter dilution method.
Test [12] relates to Klebsiella pneumoniae. Put plainly: Antibacterial activity against VIM4 carbapenemase producing multidrug-resistant Klebsiella pneumoniae 128 clinical isolate by broth microtiter dilution method.
Test [13] relates to Klebsiella pneumoniae. Put plainly: Antibacterial activity against VIM4 carbapenemase producing multidrug-resistant Klebsiella pneumoniae 101 clinical isolate by broth microtiter dilution method.
In a further test the test system is Enterobacter cloacae. Put plainly: Antibacterial activity against VIM4 carbapenemase producing multidrug-resistant Enterobacter cloacae 102 clinical isolate by broth microtiter dilution method.
The subject of test [14] is Klebsiella oxytoca. Briefly: Antibacterial activity against VIM4 carbapenemase producing multidrug-resistant Klebsiella oxytoca 126 clinical isolate by broth microtiter dilution method.
In test [15] the test system is Klebsiella oxytoca. Briefly: Antibacterial activity against VIM4 carbapenemase producing multidrug-resistant Klebsiella oxytoca 95 clinical isolate by broth microtiter dilution method.
In test [16] the test system is Pseudomonas aeruginosa. Put plainly: Antibacterial activity against VIM2 carbapenemase producing multidrug-resistant Pseudomonas aeruginosa 11 clinical isolate by broth microtiter dilution method.
Test [17] has as its system Pseudomonas aeruginosa. Briefly: Antibacterial activity against VIM2 carbapenemase producing multidrug-resistant Pseudomonas aeruginosa 6 clinical isolate by broth microtiter dilution method.
Test [18] has as its system Pseudomonas aeruginosa. Put plainly: Antibacterial activity against VIM2 carbapenemase producing multidrug-resistant Pseudomonas aeruginosa 12 clinical isolate by broth microtiter dilution method.
Test [19] relates to Pseudomonas aeruginosa. Briefly: Antibacterial activity against VIM2 carbapenemase producing multidrug-resistant Pseudomonas aeruginosa 13 clinical isolate by broth microtiter dilution method.
Test [20] deals with Pseudomonas aeruginosa. Put plainly: Antibacterial activity against VIM2 carbapenemase producing multidrug-resistant Pseudomonas aeruginosa GR57 clinical isolate infected in Galleria mellonella larvae assessed as survival rate at 0.6 mg/kg measured at 96 hrs. The settings on record: GR57, 96 h.
Another test deals with Escherichia coli. Put plainly: Antibacterial activity against VIM4 carbapenemase producing multidrug-resistant Escherichia coli 98 clinical isolate infected in Galleria mellonella larvae assessed as survival rate at 0.6 mg/kg measured at 96 hrs. The note with it: Escherichia coli, 98, 96 h.
For test [21], the system named is Klebsiella pneumoniae. Put plainly: Antibacterial activity against VIM4 carbapenemase producing multidrug-resistant Klebsiella pneumoniae 120 clinical isolate infected in Galleria mellonella larvae assessed as survival rate at 0.6 mg/kg measured at 96 hrs. The note with it: Klebsiella pneumoniae, 120, 96 h.
Test [22] relates to Pseudomonas aeruginosa. Put plainly: Antibacterial activity against VIM2 carbapenemase producing multidrug-resistant Pseudomonas aeruginosa GR62 clinical isolate by broth microtiter dilution method.

Take `C[C@@H](O)[C@H]1C(=O)N2C(C(=O)O)=C(S[C@@H]3CN[C@H](C(=O)N(C)C)C3)[C@H](C)[C@H]12` [MEROPENEM]: the MIC worked out at 128 µg/mL (≈ 334 µM) against Klebsiella pneumoniae [1]; 1 µg/mL (≈ 2.61 µM) with Klebsiella pneumoniae [2]; 8 µg/mL (≈ 20.9 µM) against Providencia stuartii [3]; 8 µg/mL (≈ 20.9 µM) in the test on Providencia stuartii [4]; 32 µg/mL (≈ 83.4 µM) in the test with Pseudomonas aeruginosa [5]; 32 µg/mL (≈ 83.4 µM) in the test on Pseudomonas aeruginosa [6]. In addition, the MIC was 32 µg/mL (≈ 83.4 µM) in the test on Pseudomonas aeruginosa [7]; 32 µg/mL (≈ 83.4 µM) in the test on Pseudomonas aeruginosa [8]; 32 µg/mL (≈ 83.4 µM) against Pseudomonas aeruginosa [9]; 128 µg/mL (≈ 334 µM) with Pseudomonas aeruginosa [10]; 128 µg/mL (≈ 334 µM) in the test on Pseudomonas aeruginosa [11]; 4 µg/mL (≈ 10.4 µM) in the test with Klebsiella pneumoniae [12]. In addition, the MIC was determined as 32 µg/mL (≈ 83.4 µM) with Klebsiella pneumoniae [13]; 32 µg/mL (≈ 83.4 µM) in the test on Enterobacter cloacae; 32 µg/mL (≈ 83.4 µM) against Klebsiella oxytoca [14]; 32 µg/mL (≈ 83.4 µM) in the test on Klebsiella oxytoca [15]; 32 µg/mL (≈ 83.4 µM) with Pseudomonas aeruginosa [16]; 128 µg/mL (≈ 334 µM) against Pseudomonas aeruginosa [17]. Further, the results for the MIC against Pseudomonas aeruginosa [18], against Pseudomonas aeruginosa [19] and against Pseudomonas aeruginosa [22] were 128 µg/mL (≈ 334 µM), 32 µg/mL (≈ 83.4 µM) and 32 µg/mL (≈ 83.4 µM), respectively. For the same molecule, the survival at 0.6 mg/kg with Pseudomonas aeruginosa [20] worked out at 23%; in the test with Escherichia coli, 44%; with Klebsiella pneumoniae [21] it was 69%.

As usually defined, the MIC is the lowest concentration found to suppress growth.
